Test results: patent US20250375445A1, “METHODS OF TREATING A RAS PROTEIN-RELATED DISEASE OR DISORDER” (Revolution Medicines, Inc., priority 2024, published 2025)

How the values were obtained:
[1] = tested on: human DUSP6 in NCI-H441 xenograft tumor; assay: NCI-H441 xenograft single dose PKPD (exposure, human DUSP6); assay type: in vivo, mouse; conditions: single oral dose, NCI-H441 xenograft tumor (FIG. 2)
Procedure: (§1) All mouse studies and procedures related to animal handling, care and treatment complied with all applicable regulations and guidelines of Institutional Animal Care and Use Committee (IACUC) approvals. Female BALB/c nude mice, 6-8 weeks old were used. Animal vendor was Shanghai Sino-British Sippr/BK Laboratory Animal Co., LTD. NCI-H441 tumor cells (ATCC-HTB-174) was maintained in vitro in RPMI-1640 medium supplemented with 10% heat inactivated FBS, 100 μg/mL streptomycin. Each mouse was inoculated subcutaneously at the right flank with 2×10^6 tumor cells in 0.2 ml media/matrigel for tumor development. Efficacy treatment started when the average tumor size reached 150-200 mm^3 in size, and the single dosed PKPD treatment started when tumor size reached 300-600 mm^3. Mice in the study were weighted and tumors were measured twice weekly.

[2] = tested on: NRAS MUT (Q61H, Q61K, Q61L, Q61R); assay: RAS-RAF Disruption, NRAS MUT; assay type: biochemical
NRAS WT = NRAS WT (Homo sapiens, UniProt P01111+P62937); assay: RAS-RAF Disruption, NRAS WT; assay type: biochemical
CypA = CypA (Homo sapiens, UniProt P62937); assay: CypA Binding (KD1)
Source text: The KD1 value of a RAS(ON) multi-selective inhibitor can be determined using methods standard in the art, including but not limited to surface plasmon resonance (SPR), Fluorescence Polarization (FP), or isothermal titration calorimetry (ITC). In a non-limiting example, the binding affinity of compounds for CypA can be assessed by SPR using, for example, a Biacore 8K instrument. CypA is immobilized on a sensor chip (e.g., a streptavidin chip), and varying RAS(ON) multi-selective inhibitor compound concentrations can be flowed over the chip in assay buffer. […] In a specific embodiment, the KD1 of a RAS(ON) multi-selective inhibitor is determined using SPR.
The binding affinity of RAS(ON) multi-selective inhibitor compounds for CypA can also be assessed by FP competition with fluorescein tagged cyclosporine A by varying RAS(ON) multi-selective inhibitor compound concentrations. The signals can be fitted using a concentration response curve and the KD1 is calculated.
In some embodiments, the KD1 value of a RAS(ON) multi-selective inhibitor for CypA can be determined using ITC, a label-free biophysical technique that directly measures the heat released or absorbed during molecular interactions. […] As the inhibitor binds to CypA, the heat of binding is measured after each injection. […]

[3] = tested on: NCI-H441 KRAS^G12V NSCLC xenograft model; assay: NCI-H441 xenograft efficacy and tolerability; assay type: in vivo
Procedure: as §1
NCI-H441 is a human lung tumor derived cell line. It harbors a KRAS^G12V mutation. It is typically grown in immune-deficient mice as a xenograft model. An NCI-H441 xenograft study was conducted in female BALB/C Nude mice. Each mouse was inoculated subcutaneously on the right flank with the single cell suspension of tumor cells (2×10^6) in 200 uL with BD Matrigel (1:1 ratio) for tumor development. Tumor width and length were measured with digital calipers, and the tumor volume in mm3 was calculated using the formula: Volume=((width)2×length)/2, where width and length are measured in mm.
Tumor growth inhibition (TGI, %) was calculated as percentage change in tumor volume for each group 100×(Vdayxc−Vdayx)/(Vdayxc−Vdayoc), where Vday0c is the starting mean tumor volume for the vehicle group, and Vdayx and Vdayxc are the corresponding tumor volumes for treatment group and control group on day x, calculated for the duration of the study. Mean tumor regression (where applicable, Vdayx<Vday0x) was calculated using the formula 100×(Vday0x−Vdayx)/Vday0x.
Differences in treatment arms as compared to vehicle controls were assessed by an ordinary one-way ANOVA of tumor volumes along with multiple comparisons via a post-hoc Tukey's test in GraphPad Prism software. Note, in some studies, additional test articles/groups (not reported here) were included and statistical analyses (ANOVA, post-hoc within group comparisons) were conducted on all treatment groups to allow for any interactions. The statistical significance values reported here represent the output of such analyses for RMC-6236 treatment arm.

[4] = tested on: KRAS MUT (G12C, G12D, G12V); assay: 2D Cell Viability, 120 hr, KRAS MUT; assay type: cell-based
[5] = Oral bioavailability (multiple species); conditions: in vivo, read-out: Oral % F (multiple species)
KRAS WT [6] = molecular target: T1, KRAS WT (Homo sapiens, UniProt P01116+P62937); assay: RAS-RAF Disruption, KRAS WT; assay type: biochemical
RAS WT [7] = assay: Cellular pERK (2D, 4 hr), RAS WT; assay type: cell-based
KRAS WT [8] = molecular target: T1, KRAS WT; assay: KRAS Binding of CypA:TCI (KD2), KRAS WT
RAS WT [9] = assay: 3D Cell Viability, 120 hr, RAS WT; assay type: cell-based
[10] = tested on: KRAS MUT (G12C, G12D, G12V); assay: Cellular pERK (2D, 4 hr), KRAS MUT; assay type: cell-based
BRAF (V600E) = assay: 2D Cell Viability, 120 hr, BRAF (V600E); assay type: cell-based
[11] = tested on: KRAS MUT (G12C, G12D, G12V); assay: RAS-RAF Disruption, KRAS MUT; assay type: biochemical
[12] = Half-life after oral administration to patients; conditions: human, in vivo
KRAS MUT (G12D, G12V) = assay: KRAS Binding of CypA:TCI (KD2), KRAS MUT
[13] = tested on: Capan-2, KRAS^G12V PDAC CDX model; assay: Capan-2 xenograft efficacy and tolerability; assay type: in vivo, mouse
Procedure: Capan-2 is a human pancreatic adenocarcinoma derived cell line. It harbors a KRAS^G12V mutation. It is typically grown in immune-deficient mice as a xenograft model. A Capan-2 xenograft study was conducted in female BALB/C Nude mice. Each mouse was inoculated subcutaneously on the right flank with the single cell suspension of tumor cells (4×10^6) in 100 uL RPMI 1640/Matrigel mixture (1:1 ratio) for tumor development. Tumor width and length were measured with digital calipers, and the tumor volume in mm3 was calculated using the formula: Volume=((width)2×length)/2, where width and length are measured in mm. Tumor growth inhibition (TGI, %) was calculated as percentage change in tumor volume for each group 100×(Vdayxc−Vdayx)/(Vdayxc−Vday0c), where Vday0c is the starting mean tumor volume for the vehicle group, and Vdayx and Vdayxc are the corresponding tumor volumes for treatment group and control group on day x, calculated for the duration of the study. Mean tumor regression (where applicable, Vdayx<Vday0x) was calculated using the formula 100×(Vday0x−Vdayx)/Vday0x.

RAS mutant NSCLC or PDAC = assay: Phase I study of RMC-6236 (NCT05379985); assay type: in vivo, human
[14] = Tolerability by dosing schedule in preclinical models
[15] = 25 mg/kg daily, 50 mg/kg daily, 50 mg/kg Q2D and 100 mg/kg Q2D (FIG. 3)
[16] = patients with RAS mutant NSCLC or PDAC

T1 sequence (P01116 1-188 isoform P01116-2): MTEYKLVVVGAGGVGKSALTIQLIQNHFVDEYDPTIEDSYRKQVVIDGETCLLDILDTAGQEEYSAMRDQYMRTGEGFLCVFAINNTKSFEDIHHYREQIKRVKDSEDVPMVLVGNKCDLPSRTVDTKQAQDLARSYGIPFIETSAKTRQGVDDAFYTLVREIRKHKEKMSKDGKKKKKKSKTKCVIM
T1 sequence (P62937 whole entry): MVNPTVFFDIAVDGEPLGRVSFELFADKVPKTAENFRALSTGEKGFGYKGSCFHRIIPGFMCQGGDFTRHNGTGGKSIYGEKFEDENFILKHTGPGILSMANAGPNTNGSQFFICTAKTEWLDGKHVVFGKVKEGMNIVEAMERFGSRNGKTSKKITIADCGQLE
NRAS WT, sequence (P01111 whole entry): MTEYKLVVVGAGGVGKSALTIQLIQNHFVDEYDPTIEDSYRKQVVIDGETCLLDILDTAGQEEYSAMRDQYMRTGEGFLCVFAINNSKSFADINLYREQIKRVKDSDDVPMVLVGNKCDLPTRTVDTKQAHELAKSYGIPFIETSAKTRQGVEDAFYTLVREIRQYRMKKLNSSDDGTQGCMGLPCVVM
NRAS WT, sequence (P62937 whole entry): as the sequence (P62937 whole entry) above
CypA, sequence (P62937 whole entry): as above

SMILES | time of maximum DUSP6 suppression post single dose [1] | IC50 [2] | IC50 (NRAS WT) | Kd (CypA) | IC50 [4] | bioavailability [5] | IC50 (KRAS WT [6]) | IC50 (RAS WT [7]) | Kd (KRAS WT [8]) | IC50 (RAS WT [9]) | IC50 [10] | IC50 (BRAF (V600E)) | IC50 [11] | Kd (KRAS MUT (G12D, G12V)) | also measured
CCn1c(-c2cc(N3CCN(C)CC3)cnc2[C@H](C)OC)c2c3cc(ccc31)-c1csc(n1)C[C@H](NC(=O)[C@H](C(C)C)N(C)C(=O)N(C)C)C(=O)N1CCC[C@H](N1)C(=O)OCC(C)(C)C2 (atropisomer, axis not shown) [Compound A] | 24 h | 18 to 109 nM | 33 nM | 12 nM | 0.2 to 1.2 nM | 20 to 38% | 42 nM | 0.4 nM | 81 nM | 0.4 nM | 0.3 to 1 nM | 1880 nM | 23 to 165 nM | – | tolerability (dosing holidays) [3, 15]: all treatment groups require some dosing holidays towards the end; tumor regression [3, 15]: the same tumor regression
CCn1c(-c2cc(N3CCN(C)CC3)cnc2[C@H](C)OC)c2c3cc(ccc31)-c1csc(n1)C[C@H](NC(=O)[C@H]1C[C@@H]1C)C(=O)N1CCC[C@H](N1)C(=O)OCC(C)(C)C2 (atropisomer, axis not shown) [RMC-6236, daraxonrasib] | 8 h | 57 to 204 nM | – | – | 1 to 3.1 nM | 24 to 33% | – | 1.5 nM | – | 1.4 nM | 0.4 to 3.6 nM | 7210 nM | 35 to 229 nM | 131 to 364 nM | decrease in tumor volume ([3]; 25 mg/kg (Q2D) (FIG. 1)): lower decreases in tumor volume; tumor regression ([3]; 25 mg/kg QD, NCI-H441 model (FIG. 6)): 88%; tumor regression ([3]; 100 mg/kg Q2D, NCI-H441 model (FIG. 6)): 89%; tumor regression ([3]; 100 mpk with increased interval of dosing, NCI-H441 model (FIG. 6)): 68%; tolerability, body weight ([3]; all doses and regimens of FIG. 6): without any significant body weight loss; tolerability ([3]; all regimens of FIG. 4 and FIG. 5): tolerated in vivo; half-life [12]: ~10 h; tumor regression ([13]; 25 mg/kg QD, Capan-2 (FIG. 7)): 53%; tumor regression ([13]; 35 mg/kg 5on2off, Capan-2 (FIG. 7)): 28%; tumor regression ([13]; 40 mg/kg 4on3off, Capan-2 (FIG. 7)): 27%; tumor regression ([13]; 50 mg/kg Q2D, Capan-2 (FIG. 7)): 51%; tolerability, body weight ([13]; all tested doses and regimens, Capan-2 (FIG. 7)): without any significant body weight loss; tumor growth inhibition ([13]; all tested doses and regimens, oral administration (FIG. 7)): Tumor growth inhibition was observed; most common treatment-related adverse events (TRAEs) (RAS mutant NSCLC or PDAC): rash and GI-related toxicities; antitumor activity (RAS mutant NSCLC or PDAC; [16]): encouraging antitumor activity; safety profile (RAS mutant NSCLC or PDAC; [16]): acceptable safety profile; body weight loss and tolerability ([14]; BID dosing): more severe body weight loss and intolerability; tolerated dose level ([14]; Q2D dosing): allows higher dose levels to be tolerated; body weight loss ([14]; Q2D dosing at an equivalent dose of QD dosing): slightly improves the body weight loss
CCn1c(-c2cc(N3CCN(C4CC4)CC3)cnc2[C@H](C)OC)c2c3cc(ccc31)-c1csc(n1)C[C@H](CC(=O)[C@H]1[C@@H]3COC[C@@H]31)C(=O)N1CCC[C@H](N1)C(=O)OCC(C)(C)C2 (atropisomer, axis not shown) [RMC-7977] | 8 h | 48 to 144 nM | 57 nM | 216 nM | 0.8 to 4.9 nM | 60% | 76 nM | 1.7 nM | 116 nM | 1.9 nM | 0.5 to 4.1 nM | 8360 nM | 31 to 175 nM | 111 to 435 nM | –
